Assays:
[1] = tested on: CEM/VLB100 (vinblastine-resistant variant); experiment: Inhibition of cell proliferation; type: cell-based, human
[2] = tested on: 1A9/PTX22 (paclitaxel-resistant variant); experiment: Inhibition of cell proliferation; type: cell-based
[3] = molecular target: T1, tubulin; experiment: Tubulin binding assay (fluorescence titration / quenching); set-up: species or system mammalian; conditions: 2 μM tubulin, 45 min at 37° C., pH 6.8; mean±SD, four experiments; read-out: dissociation constant (Kd) for binding to tubulin
T1 construct: other: 2 μM tubulin, 45 min at 37° C., pH 6.8; mean±SD, four experim
Experimental: Cell culture reagents were obtained from Mediatech, Cellgro. CEM, a human lymphoblastoid line was provided by Dr. William T. Beck (Cancer Center, University of Illinois at Chicago). MCF-7 cells were maintained in Dulbecco's Modification of Eagle's Medium 1× (DMEM) with 4.5 g/L glucose and L-glutamine (Mediatech, Cellgro) supplemented with 10% fetal bovine serum (Invitrogen, Carlsbad, Calif.) and 1% penicillin/streptomycin (Mediatech, Cellgro). MDA-MB-231 and CEM cells were grown in RPMI-1640 medium supplemented with 10% fetal bovine serum, and 1% penicillin/streptomycin. […]
Fluorescence titration for determining the tubulin binding parameters was performed as described previously. […] The relative intrinsic fluorescence intensity of tubulin was then monitored in a JASCO FP-6500 spectrofluorometer (JASCO, Tokyo, Japan) using a cuvette of 0.3-cm path length, and the excitation wavelength was 295 nm. The fluorescence emission intensity of noscapine and its derivatives at this excitation wavelength was negligible. A 0.3-cm path-length cuvette was used to minimize the inner filter effects caused by the absorbance of these agents at higher concentration ranges. In addition, the inner filter effects were corrected using a formula F corrected ═F observed•antilog [(Aex+Aem)/2], where Aex is the absorbance at the excitation wavelength and Aem is the absorbance at the emission wavelength. […]

[4] = tested on: 1A9 (ovarian cancer cells); experiment: Inhibition of cell proliferation; type: cell-based
[5] = tested on: MCF-7 cells; experiment: Immunofluorescence confocal microscopy of spindle architecture and nuclear morphology; type: cell-based, human; conditions: 25 μM, 0, 12, 24, 48 and 72 hours
Experimental: Cells adhered to poly-L-lysine coated coverslips were treated with noscapine, 9-chloro-noscapine, and other halogenated analogs (9-F-nos, 9-Br-nos, and 9-I-nos) for 0, 12, 24, 48 and 72 hours. After treatment, cells were fixed with cold (−20° C.) methanol for 5 min and then washed with phosphate-buffered saline (PBS) for 5 min. Non-specific sites were blocked by incubating with 100 μl of 2% BSA in PBS at 37° C. for 15 min. A mouse monoclonal antibody against α-tubulin (DM1A, Sigma) was diluted 1:500 in 2% BSA/PBS (100 μl) and incubated with the coverslips for 2 hours at 37° C. Cells were then washed with 2% BSA/PBS for 10 min at room temperature before incubating with a 1:200 dilution of a fluorescein-isothiocyanate (FITC)-labeled goat anti-mouse IgG antibody (Jackson ImmunoResearch, Inc., West Grove, Pa.) at 37° C. for 1 hour. Coverslips were then rinsed with 2% BSA/PBS for 10 min and incubated with propidium iodide (0.5 μg/ml) for 15 min at room temperature before they were mounted with Aquamount (Lerner Laboratories, Pittsburgh, Pa.) containing 0.01% 1,4-diazobicyclo(2,2,2)octane (DABCO, Sigma). […]
To test whether 9-chloro-noscapine induces spindle abnormalities prior to apoptotic cell death indicated by nuclear fragmentation of dying cells, the spindle architecture and nuclear morphology of MCF-7 cells treated with 9-chloronoscapine was evaluated using confocal microscopy (FIG. 4). […]

`COc1ccc2c(c1OC)C(=O)O[C@@H]2[C@H]1c2c(c(Cl)c3c(c2OC)OCO3)CCN1C` [9-Cl-nos, (S)-3-((R)-9-chloro-4-methoxy-6-methyl-5,6,7,8-tetrahydro-[1,3]dioxolo[4,5-g]isoquinolin-5-yl)-6,7-dimethoxyisobenzofuran-1(3H)-one] was tested, and the “inhibition of cell proliferation (in words)” value (shortened to “inhibition”) [1] was “effectively inhibits cell proliferation”, the “inhibition” value [2] was “effectively inhibits cell proliferation” and the Kd [3] was 40 ± 8 µM. The “inhibition” value [4] was “effectively inhibits cell proliferation” and the “spindle abnormalities / mitotic arrest” value [5] was “mitotic arrest commencing as early as 12 hours, and maximizing at 24 hours”.
